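These data come from cells grown in 96-well plates and exposed to compound for 48 hours at five concentrations. Here, GI50 denotes the concentration required for 50% inhibition of growth.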 Active and inactive are the calls of the source. Rule as the data show it: active = GI50 up to about 1.1 µM and inactive = higher.
Assays:
Test in all cases: NCI tumour cell line growth inhibition, 48 h
[1] = system: SNB-75
[2] = system: A549
[3] = system: UO-31
[4] = system: RPMI-8226
[5] = system: Hs-578T
[6] = system: KM12
[7] = system: CCRF-CEM
[8] = system: OVCAR-5
[9] = system: Malme-3M
[10] = system: U-251
[11] = system: M14
[12] = system: SF-268
[13] = system: RXF 393
[14] = system: CAKI-1
[15] = system: T47D
[16] = system: HCT-15
[17] = system: OVCAR-4
[18] = system: SK-MEL-2
[19] = system: MDA-MB-435
[20] = system: MOLT-4

SMILES | GI50 [1] | GI50 [2] | GI50 [3] | GI50 [4] | GI50 [5] | GI50 [6] | GI50 [7] | GI50 [8] | GI50 [9] | GI50 [10] | GI50 [11] | GI50 [12] | GI50 [13] | GI50 [14] | GI50 [15] | GI50 [16] [µM] | GI50 [17] | GI50 [18] | GI50 [19] | GI50 [20]
O=C1OC(C2Cc3ccc4ccccc4c3C2=O)c2ccccc21 (stereo unspecified) | 32.3 µM (inactive) | 36.9 µM (inactive) | 71.3 µM (inactive) | 25.9 µM (inactive) | 31.6 µM (inactive) | 28.3 µM (inactive) | 31 µM (inactive) | > 100 µM (inactive) | 50.1 µM (inactive) | 32.7 µM (inactive) | 92.9 µM (inactive) | 33.8 µM (inactive) | 17.4 µM (inactive) | 61.9 µM (inactive) | 63 µM (inactive) | 34.8 | 24.4 µM (inactive) | 47.8 µM (inactive) | 51.9 µM (inactive) | 31.4 µM (inactive)
CCOC(NC(=O)CC)(C(F)(F)F)C(F)(F)F | > 100 µM (inactive) | > 100 µM (inactive) | > 100 µM (inactive) | > 100 µM (inactive) | > 100 µM (inactive) | > 100 µM (inactive) | > 100 µM (inactive) | > 100 µM (inactive) | > 100 µM (inactive) | > 100 µM (inactive) | > 100 µM (inactive) | > 100 µM (inactive) | 0.145 µM (active) | > 100 µM (inactive) | > 100 µM (inactive) | > 100 |  | > 100 µM (inactive) | > 100 µM (inactive) | > 100 µM (inactive)
CCOC(=O)c1ccc2c(=O)n3c(C(=O)OCC)ccc3c(=O)n12 | 44.5 µM (inactive) | > 100 µM (inactive) | > 100 µM (inactive) | > 100 µM (inactive) | > 100 µM (inactive) | > 100 µM (inactive) | > 100 µM (inactive) | > 100 µM (inactive) | > 100 µM (inactive) | > 100 µM (inactive) | > 100 µM (inactive) | > 100 µM (inactive) | > 100 µM (inactive) | > 100 µM (inactive) | > 100 µM (inactive) | > 100 | > 100 µM (inactive) | > 100 µM (inactive) | > 100 µM (inactive) | > 100 µM (inactive)
Cc1ccc(C2C(C(=O)C(C)(C)C)N2S(=O)(=O)c2ccc(C)cc2)cc1 (stereo unspecified) | 19.5 µM (inactive) | 40.3 µM (inactive) | 18.4 µM (inactive) | 18.9 µM (inactive) | 28.7 µM (inactive) | 34.5 µM (inactive) | 22.6 µM (inactive) | 21.3 µM (inactive) | 23.2 µM (inactive) | 20.2 µM (inactive) | 17.8 µM (inactive) | 30.5 µM (inactive) | 21 µM (inactive) | 26.4 µM (inactive) | 21 µM (inactive) | 22.3 | 30.1 µM (inactive) | 46.6 µM (inactive) | 20.9 µM (inactive) | 
CCOC(=O)c1nc2cc(C(F)(F)F)ccc2nc1Oc1ccc(OC)cc1 | > 100 µM (inactive) | > 100 µM (inactive) | > 100 µM (inactive) | 45.4 µM (inactive) | > 100 µM (inactive) | > 100 µM (inactive) | 66.2 µM (inactive) | > 100 µM (inactive) | > 100 µM (inactive) | > 100 µM (inactive) | > 100 µM (inactive) | > 100 µM (inactive) | 50.9 µM (inactive) | > 100 µM (inactive) | > 100 µM (inactive) | > 100 | > 100 µM (inactive) | > 100 µM (inactive) | > 100 µM (inactive) | 45.5 µM (inactive)
C=CCN(c1cc(OC)c2[nH]c(C(=O)O)c(C)c2c1[N+](=O)[O-])S(C)(=O)=O | > 100 µM (inactive) | > 100 µM (inactive) | > 100 µM (inactive) | > 100 µM (inactive) | > 100 µM (inactive) | > 100 µM (inactive) | > 100 µM (inactive) | > 100 µM (inactive) | 9.79 µM (inactive) | > 100 µM (inactive) | > 100 µM (inactive) | > 100 µM (inactive) | > 100 µM (inactive) | > 100 µM (inactive) | > 100 µM (inactive) | > 100 | > 100 µM (inactive) | > 100 µM (inactive) | > 100 µM (inactive) | > 100 µM (inactive)
CO/C(=N\N=C(/C)C(F)(F)F)c1ccncc1 | > 100 µM (inactive) |  | > 100 µM (inactive) | > 100 µM (inactive) | > 100 µM (inactive) | > 100 µM (inactive) | > 100 µM (inactive) | > 100 µM (inactive) | > 100 µM (inactive) | > 100 µM (inactive) | > 100 µM (inactive) |  | > 100 µM (inactive) | > 100 µM (inactive) | > 100 µM (inactive) | > 100 | > 100 µM (inactive) | > 100 µM (inactive) | > 100 µM (inactive) | 44.5 µM (inactive)
